These results are taken from patent publication US20260265329A1, “POLYPEPTIDE AND DERIVATIVE THEREOF, COMPOSITION, AND USE THEREOF” (HANGZHOU SCIWIND BIOSCIENCES CO., LTD., priority 2023, published 2026).

For one data set, the target named is T1, human amylin receptors (Homo sapiens, UniProt O60896+P30988).
T1 construct: host or cells: CHO-K1/Ga15/AMY3 cells, further stably transfected with a CRE-luciferase plasmid
T1 sequence (P30988 25-474): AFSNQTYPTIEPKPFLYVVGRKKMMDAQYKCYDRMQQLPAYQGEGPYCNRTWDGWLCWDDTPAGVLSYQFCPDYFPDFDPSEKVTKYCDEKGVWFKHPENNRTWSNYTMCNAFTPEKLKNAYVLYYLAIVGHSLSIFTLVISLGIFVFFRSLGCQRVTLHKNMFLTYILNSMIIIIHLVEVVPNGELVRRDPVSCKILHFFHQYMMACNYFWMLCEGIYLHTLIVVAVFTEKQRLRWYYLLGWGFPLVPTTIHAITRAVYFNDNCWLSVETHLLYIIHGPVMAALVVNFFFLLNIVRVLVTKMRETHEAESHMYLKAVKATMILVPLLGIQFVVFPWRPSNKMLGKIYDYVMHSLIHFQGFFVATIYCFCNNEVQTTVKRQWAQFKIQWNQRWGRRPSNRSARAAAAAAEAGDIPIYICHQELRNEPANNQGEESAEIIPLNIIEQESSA
T1 sequence (O60896 24-148 partner): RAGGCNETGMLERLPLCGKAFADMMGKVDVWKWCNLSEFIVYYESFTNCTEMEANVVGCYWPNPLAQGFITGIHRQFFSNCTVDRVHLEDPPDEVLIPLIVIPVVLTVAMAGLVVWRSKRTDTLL
Description: Luciferase assay in stably transfected amylin receptor/CRE-luc CHO cell line. To be noted: for Relative activity: EC50 ratio of Cagrilintide to the compound, Cagrilintide 100%; for EC50: amylin receptor/CRE-luc CHO cells, 24 hours incubation, luminescence. The class given is cell-based.

The nature of data set [1]: Heat accelerated stability assay, 40° C., detection on 10 d and 20 d. In kind it is physicochemical. The note with it: 1 mg/mL, pH about 7.4, 40° C. The protocol: (§1) The derivatives (1 mg/mL) were mixed with sodium dihydrogen phosphate (1.42 mg/mL) and dissolved in ultrapure water. After adjusting pH to about 7.4 with hydrochloric acid/sodium hydroxide, the solution was filtered into a sterilized vial in a clean bench using a 0.22 μm sterile filter. The vial was then capped and placed into the stability test chamber at 40° C. Detections were made on 10d and 20d, and during the assay changes in the characteristics and properties of the polypeptides were observed and recorded. The sample was then centrifuged for 3 min at 10000 rpm at 4° C., and the supernatant was transferred to a liquid phase sample vial for detecting the concentration and purity of the polypeptides using liquid phase chromatography described as below.
Flow rate: 1.0 mL/min; Autosampler temperature: 25° C.; Column temperature: 25° C.; Detection wavelength: 214 nm; Mobile phase A: 110 mM phosphate buffer (pH 5.8): ACN=90:10; Mobile phase B: ACN: IPA: H2O=85:5:10; and Gradient of elution listed in Table 6: […]

The nature of data set [2]: Heat accelerated stability assay, 40° C., detection on 7 d and 28 d. The class given is physicochemical. The protocol:
as §1, with “Days 7 (7d)” for “10d”, “28 (28d),” for “20d,”, “assay,” for “assay”
Conditions of the reversed phase chromatography Flow rate: 1.0 mL/min; Autosampler temperature: 15° C.; Column temperature: 25° C.; Detection wavelength: 214 nm; Mobile phase A: 100% H2O+0.05% TFA; Mobile phase B: 100% ACN; and Gradient of elution listed in Table 4: […]

A short description of the next data set: in vivo. Also noted: species or system SD rats. The note with it: rat, sc, 1 mg/kg. As for the experimental part: The animals received a subcutaneous injection of corresponding compounds for testing (1 mg/kg and 5 ml/kg), and the day of administration was designated as D1. The whole blood of the animals was collected pre dose (-10 min) on D1 and post dose at D1-2h, D1-4h, D1-6h, D2-24h, D3-48h, D4-72h, D5-96h, and D6-120 h and was processed into plasma (using EDTA for anticoagulation). Liquid chromatography-tandem mass spectrometry (LC-MS/MS) was used to detect the concentration of drug molecules in the plasma, and GraphPad Prism 10 was utilized to plot a concentration-time curve for the drugs whose pharmacokinetic parameters including Cmax, Tmax, T1/2, AUC, and MRT were then calculated with PKSolver.

Starred links: 1 amine or outer side, 2 acyl side, 3 side chain; linkers in the order of their positions; H or OH if unused. Non-standard residues stand in square brackets, D forms with d. Residues, ends and D or L forms follow the SMILES beside them. *: point of attachment. C20 diacid = O=C(O)CCCCCCCCCCCCCCCCCCC(=O)*; γGlu = O=C(O)[C@H](CCC(=O)[*:2])N[*:1]; Hyp = O=C(O)[C@@H]1C[C@@H](O)CN1

Consider `CC[C@H](C)[C@H](NC(=O)[C@@H]1CCCN1C(=O)CNC(=O)[C@H](Cc1ccccc1)NC(=O)[C@H](CC(N)=O)NC(=O)[C@H](CC(N)=O)NC(=O)[C@H](CO)NC(=O)[C@H](CO)NC(=O)[C@H](Cc1c[nH]cn1)NC(=O)[C@H](CCCNC(=N)N)NC(=O)[C@H](CC(C)C)NC(=O)[C@H](Cc1ccccc1)NC(=O)[C@H](CCC(=O)O)NC(=O)[C@H](C)NC(=O)[C@H](CC(C)C)NC(=O)[C@H](CCCNC(=N)N)NC(=O)[C@H](CCC(N)=O)NC(=O)[C@@H](NC(=O)[C@H](C)NC(=O)[C@@H]1CSSC[C@H](NC(=O)[C@H](CCCCN)NC(=O)CC[C@H](NC(=O)CCCCCCCCCCCCCCCCCCC(=O)O)C(=O)O)C(=O)N[C@@H](CC(N)=O)C(=O)N[C@@H]([C@@H](C)O)C(=O)N[C@@H](C)C(=O)N[C@@H]([C@@H](C)O)C(=O)N1)[C@@H](C)O)C(=O)N[C@@H](CC(C)C)C(=O)N1CCC[C@H]1C(=O)N1CCC[C@H]1C(=O)N[C@H](C(=O)N[C@@H](CC(N)=O)C(=O)N[C@H](C(=O)NCC(=O)N[C@@H](CO)C(=O)N[C@@H](CC(N)=O)C(=O)N[C@H](C(=O)N1CCC[C@H]1C(N)=O)[C@@H](C)O)C(C)C)[C@@H](C)O` [Cagrilintide, reference compound], for which the Relative activity at human amylin receptors was found to be 100%. Also, in data set [1], the “Reduction in purity, 10 d” value came out at 44.83%. For the same compound, the “Purity from the reversed phase chromatography-214 nm, 0 d” value in data set [2] (1 mg/mL, pH about 7.4, 40° C., 0 d) was determined as 90.04. The “Purity from the reversed phase chromatography-214 nm, 7 d” value in data set [2] (1 mg/mL, pH about 7.4, 40° C., 7 d) is listed as 82.03. Moreover, the “Purity from the reversed phase chromatography-214 nm, 28 d” value in data set [2] (1 mg/mL, pH about 7.4, 40° C., 28 d) is recorded as 73.89. In addition, the “Change (7 d − 0 d)” value in data set [2] (purity on 7 d − purity on 0 d, 40° C., pH about 7.4) is reported as −8.01. Also, the “Change (28 d − 0 d)” value in data set [2] (purity on 28 d − purity on 0 d, 40° C., pH about 7.4) was −16.15. Besides, in “in vivo”, the total exposure AUC(0-inf) (in general, total exposure, with the tail of the curve extrapolated) was found to be 177 µg·h/mL; the AUC(0-t) (commonly exposure summed from dosing to a finite time, without extrapolation to infinity) came to 173 µg·h/mL; the concentration peaked (Cmax) at 3270 ng/mL; the mean residence time MRT inf – broadly, a mean duration of stay, worked out from the concentration-time curve – was 43.4 h. In “in vivo”, the Tmax – broadly, the time from dosing to the highest level – came out at 24 h and the half-life (usually how long it takes for the measured level to halve) was 24.7 h.
As to `CC[C@H](C)[C@H](NC(=O)[C@@H]1CCCN1C(=O)[C@H](CCCCN)NC(=O)[C@H](CC(C)C)NC(=O)[C@H](CC(N)=O)NC(=O)[C@H](Cc1c[nH]cn1)NC(=O)[C@H](CO)NC(=O)[C@H](CO)NC(=O)[C@H](Cc1c[nH]cn1)NC(=O)[C@H](CCCNC(=N)N)NC(=O)[C@H](CC(C)C)NC(=O)[C@H](Cc1ccccc1)NC(=O)[C@H](CC(=O)O)NC(=O)[C@H](C)NC(=O)[C@H](CC(C)C)NC(=O)[C@H](CCCNC(=N)N)NC(=O)[C@H](CCC(N)=O)NC(=O)[C@@H](NC(=O)[C@H](C)NC(=O)[C@H](C)NC(=O)[C@@H](NC(=O)[C@H](CO)NC(=O)[C@H](CC(C)C)NC(=O)[C@H](CCC(N)=O)NC(=O)[C@H](CO)NC(=O)[C@H](C)NC(=O)CC[C@H](NC(=O)CCCCCCCCCCCCCCCCCCC(=O)O)C(=O)O)[C@@H](C)O)[C@@H](C)O)C(=O)N[C@@H](CC(C)C)C(=O)N1CCC[C@H]1C(=O)N1CCC[C@H]1C(=O)N[C@H](C(=O)N[C@@H](CC(N)=O)C(=O)N[C@H](C(=O)NCC(=O)N[C@@H](CO)C(=O)N[C@@H](CC(N)=O)C(=O)N[C@H](C(=O)N1C[C@H](O)C[C@H]1C(N)=O)[C@@H](C)O)C(C)C)[C@@H](C)O` [M52] ({C20 diacid-γGlu}-ASQLSTAATQRLADFLRHSSHNLKPILPPTNVGSNT[Hyp]-NH2), at human amylin receptors, the Relative activity amounted to 178% and a half-maximal effect (EC50) was put at 0.09 nM. Moreover, in data set [1], the “Reduction in purity, 10 d” value was 7.91% and the “Reduction in purity, 20 d” value is given as 15.42%.
In the case of `CC[C@H](C)[C@H](NC(=O)[C@@H]1CCCN1C(=O)[C@H](CCCCN)NC(=O)[C@H](CC(C)C)NC(=O)[C@H](CC(N)=O)NC(=O)[C@H](CCCCN)NC(=O)[C@H](CO)NC(=O)[C@H](CO)NC(=O)[C@H](Cc1c[nH]cn1)NC(=O)[C@H](CCCNC(=N)N)NC(=O)[C@H](CC(C)C)NC(=O)[C@H](Cc1ccccc1)NC(=O)[C@H](CC(=O)O)NC(=O)[C@H](C)NC(=O)[C@H](CC(C)C)NC(=O)[C@H](CCCNC(=N)N)NC(=O)[C@H](CCC(N)=O)NC(=O)[C@@H](NC(=O)[C@H](C)NC(=O)[C@H](C)NC(=O)[C@@H](NC(=O)[C@H](CO)NC(=O)[C@H](CC(C)C)NC(=O)[C@H](CCC(N)=O)NC(=O)[C@H](CO)NC(=O)[C@H](C)NC(=O)CC[C@H](NC(=O)CCCCCCCCCCCCCCCCCCC(=O)O)C(=O)O)[C@@H](C)O)[C@@H](C)O)C(=O)N[C@@H](CC(C)C)C(=O)N1CCC[C@H]1C(=O)N1CCC[C@H]1C(=O)N[C@H](C(=O)N[C@@H](CC(N)=O)C(=O)N[C@H](C(=O)NCC(=O)N[C@@H](CO)C(=O)N[C@@H](CC(N)=O)C(=O)N[C@H](C(=O)N1C[C@H](O)C[C@H]1C(N)=O)[C@@H](C)O)C(C)C)[C@@H](C)O` [M53] ({C20 diacid-γGlu}-ASQLSTAATQRLADFLRHSSKNLKPILPPTNVGSNT[Hyp]-NH2), at human amylin receptors, the Relative activity came out at 200% and the response was half-maximal at 0.08 nM (EC50). Besides, in data set [1], the “Reduction in purity, 10 d” value is on record as 11.82% and the “Reduction in purity, 20 d” value came to 19.98%.
For `CC[C@H](C)[C@H](NC(=O)[C@@H]1CCCN1C(=O)[C@H](CCCCN)NC(=O)[C@H](CC(C)C)NC(=O)[C@H](CC(N)=O)NC(=O)[C@H](CCCNC(=N)N)NC(=O)[C@H](CO)NC(=O)[C@H](CO)NC(=O)[C@H](Cc1c[nH]cn1)NC(=O)[C@H](CCCNC(=N)N)NC(=O)[C@H](CC(C)C)NC(=O)[C@H](Cc1ccccc1)NC(=O)[C@H](CC(=O)O)NC(=O)[C@H](C)NC(=O)[C@H](CC(C)C)NC(=O)[C@H](CCCNC(=N)N)NC(=O)[C@H](CCC(N)=O)NC(=O)[C@@H](NC(=O)[C@H](C)NC(=O)[C@H](C)NC(=O)[C@@H](NC(=O)[C@H](CO)NC(=O)[C@H](CC(C)C)NC(=O)[C@H](CCC(N)=O)NC(=O)[C@H](CO)NC(=O)[C@H](C)NC(=O)CC[C@H](NC(=O)CCCCCCCCCCCCCCCCCCC(=O)O)C(=O)O)[C@@H](C)O)[C@@H](C)O)C(=O)N[C@@H](CC(C)C)C(=O)N1CCC[C@H]1C(=O)N1CCC[C@H]1C(=O)N[C@H](C(=O)N[C@@H](CC(N)=O)C(=O)N[C@H](C(=O)NCC(=O)N[C@@H](CO)C(=O)N[C@@H](CC(N)=O)C(=O)N[C@H](C(=O)N1C[C@H](O)C[C@H]1C(N)=O)[C@@H](C)O)C(C)C)[C@@H](C)O` [M54] ({C20 diacid-γGlu}-ASQLSTAATQRLADFLRHSSRNLKPILPPTNVGSNT[Hyp]-NH2), at human amylin receptors, the Relative activity is 267% and the midpoint of the response, the EC50, lay at 0.06 nM. Besides, in data set [1], the “Reduction in purity, 10 d” value is 11.67% and the “Reduction in purity, 20 d” value was found to be 20.56%.
